# Species: Rattus norvegicus
# Assay: Open TG-GATES - Regimen: Daily Repeat
# Assay type: toxicity, organism-based, Sprague-Dawley
# Design: regimen Daily Repeat, gender Male, age 6 weeks
# Conditions: in vivo, po, 0 mg/kg, route gavage, dose level Control; for APTT / Bas / Eos / Fbg / Hb / Ht / Lym / MCH / MCHC / MCV / Mono / Neu / PT / Plat / RBC / Ret / WBC: tissue Blood; for KIDNEY_L / KIDNEY_R / KIDNEY_TOTAL: tissue Kidney; for LIVER: tissue Liver; for A/G / ALP / ALT / AST / BUN / CRE / Ca / Cl / DBIL / GLC / IP / K / LDH / Na / PL / RALB / TBIL / TC / TG / TP / gamma-GTP: tissue Plasma
smiles,measurement,setting,value
ClC(Cl)(Cl)Cl [CARBON TETRACHLORIDE],TERMINAL_BW,"72 h, time 3 day",223.2 g
same,APTT,"72 h, time 3 day",17 s
same,Bas,"72 h, time 3 day",0%
same,Eos,"72 h, time 3 day",1%
same,Fbg,"72 h, time 3 day",234.4 mg/dL
same,Hb,"72 h, time 3 day",13.7 g/dL
same,Ht,"72 h, time 3 day",40.1%
same,Lym,"72 h, time 3 day",82.4%
same,MCH,"72 h, time 3 day",21.8 pg
same,MCHC,"72 h, time 3 day",34.2%
same,MCV,"72 h, time 3 day",63.7 fL
same,Mono,"72 h, time 3 day",2.8%
same,Neu,"72 h, time 3 day",13%
same,PT,"72 h, time 3 day",11.6 s
same,Plat,"72 h, time 3 day",129.5 x10_4/uL
same,RBC,"72 h, time 3 day",629.2 x10_4/ul
same,Ret,"72 h, time 3 day",7.4%
same,WBC,"72 h, time 3 day",96.4 x10_2/uL
same,KIDNEY_L,"72 h, time 3 day",0.9 g
same,KIDNEY_R,"72 h, time 3 day",1 g
same,KIDNEY_TOTAL,"72 h, time 3 day",1.9 g
same,LIVER,"72 h, time 3 day",10.9 g
same,A/G,"72 h, time 3 day",1.5
same,ALP,"72 h, time 3 day",1075.2 IU/L
same,ALT,"72 h, time 3 day",44.8 IU/L
same,AST,"72 h, time 3 day",71.2 IU/L
same,BUN,"72 h, time 3 day",16.2 mg/dL
same,CRE,"72 h, time 3 day",0.4 mg/dL
same,Ca,"72 h, time 3 day",10.9 mg/dL
same,Cl,"72 h, time 3 day",103 meq/L
same,DBIL,"72 h, time 3 day",0.08 mg/dL
same,GLC,"72 h, time 3 day",206.4 mg/dL
same,IP,"72 h, time 3 day",7.5 mg/dL
same,K,"72 h, time 3 day",3.9 meq/L
same,LDH,"72 h, time 3 day",208.6 IU/L
same,Na,"72 h, time 3 day",140 meq/L
same,PL,"72 h, time 3 day",155.4 mg/dL
same,RALB,"72 h, time 3 day",3.2 g/dL
same,TBIL,"72 h, time 3 day",0.1 mg/dL
same,TC,"72 h, time 3 day",82.4 mg/dL
same,TG,"72 h, time 3 day",86.6 mg/dL
same,TP,"72 h, time 3 day",5.5 g/dL
same,gamma-GTP,"72 h, time 3 day",1 IU/L
same,TERMINAL_BW,"[…], time 7 day",257 g
same,TERMINAL_BW,"[…], time 14 day",300.9 g
same,TERMINAL_BW,"[…], time 28 day",389 g
same,APTT,"[…], time 7 day",18.3 s
same,Bas,"[…], time 7 day",0%
same,Eos,"[…], time 7 day",1%
same,Fbg,"[…], time 7 day",249.4 mg/dL
same,Hb,"[…], time 7 day",13.9 g/dL
same,Ht,"[…], time 7 day",40.1%
same,Lym,"[…], time 7 day",84.6%
same,MCH,"[…], time 7 day",21.6 pg
same,MCHC,"[…], time 7 day",34.8%
same,MCV,"[…], time 7 day",61.9 fL
same,Mono,"[…], time 7 day",2.6%
same,Neu,"[…], time 7 day",11.2%
same,PT,"[…], time 7 day",11.5 s
same,Plat,"[…], time 7 day",129.8 x10_4/uL
same,RBC,"[…], time 7 day",647.4 x10_4/ul
same,Ret,"[…], time 7 day",6.1%
same,WBC,"[…], time 7 day",111 x10_2/uL
same,APTT,"[…], time 14 day",20.1 s
same,Bas,"[…], time 14 day",0%
same,Eos,"[…], time 14 day",0.8%
same,Fbg,"[…], time 14 day",239 mg/dL
same,Hb,"[…], time 14 day",14.6 g/dL
same,Ht,"[…], time 14 day",42.9%
same,Lym,"[…], time 14 day",80.8%
same,MCH,"[…], time 14 day",20 pg
same,MCHC,"[…], time 14 day",34%
same,MCV,"[…], time 14 day",58.9 fL
same,Mono,"[…], time 14 day",2.6%
same,Neu,"[…], time 14 day",15%
same,PT,"[…], time 14 day",11.5 s
same,Plat,"[…], time 14 day",124 x10_4/uL
same,RBC,"[…], time 14 day",728 x10_4/ul
same,Ret,"[…], time 14 day",3.9%
same,WBC,"[…], time 14 day",114.8 x10_2/uL
same,APTT,"[…], time 28 day",22.7 s
same,Bas,"[…], time 28 day",0%
same,Eos,"[…], time 28 day",1%
same,Fbg,"[…], time 28 day",227.4 mg/dL
same,Hb,"[…], time 28 day",15.1 g/dL
same,Ht,"[…], time 28 day",43.7%
same,Lym,"[…], time 28 day",83.8%
same,MCH,"[…], time 28 day",19.3 pg
same,MCHC,"[…], time 28 day",34.6%
same,MCV,"[…], time 28 day",55.7 fL
same,Mono,"[…], time 28 day",2.6%
same,Neu,"[…], time 28 day",11.8%
same,PT,"[…], time 28 day",11.9 s
same,Plat,"[…], time 28 day",120.7 x10_4/uL
same,RBC,"[…], time 28 day",785.8 x10_4/ul
same,Ret,"[…], time 28 day",2.8%
same,WBC,"[…], time 28 day",121 x10_2/uL
same,KIDNEY_L,"[…], time 7 day",1 g
same,KIDNEY_R,"[…], time 7 day",1 g
same,KIDNEY_TOTAL,"[…], time 7 day",2.1 g
same,KIDNEY_L,"[…], time 14 day",1.2 g
same,KIDNEY_R,"[…], time 14 day",1.1 g
same,KIDNEY_TOTAL,"[…], time 14 day",2.3 g
same,KIDNEY_L,"[…], time 28 day",1.3 g
same,KIDNEY_R,"[…], time 28 day",1.4 g
same,KIDNEY_TOTAL,"[…], time 28 day",2.7 g
same,LIVER,"[…], time 7 day",12.5 g
same,LIVER,"[…], time 14 day",12.6 g
same,LIVER,"[…], time 28 day",16.7 g
same,A/G,"[…], time 7 day",1.7
same,ALP,"[…], time 7 day",922.4 IU/L
same,ALT,"[…], time 7 day",34.2 IU/L
same,AST,"[…], time 7 day",62.4 IU/L
same,BUN,"[…], time 7 day",16.2 mg/dL
same,CRE,"[…], time 7 day",0.4 mg/dL
same,Ca,"[…], time 7 day",10.7 mg/dL
same,Cl,"[…], time 7 day",104 meq/L
same,DBIL,"[…], time 7 day",0.1 mg/dL
same,GLC,"[…], time 7 day",204.2 mg/dL
same,IP,"[…], time 7 day",7.4 mg/dL
same,K,"[…], time 7 day",4.2 meq/L
same,LDH,"[…], time 7 day",201.8 IU/L
same,Na,"[…], time 7 day",139.8 meq/L
same,PL,"[…], time 7 day",165.4 mg/dL
same,RALB,"[…], time 7 day",3.5 g/dL
same,TBIL,"[…], time 7 day",0.2 mg/dL
same,TC,"[…], time 7 day",81.8 mg/dL
same,TG,"[…], time 7 day",126.4 mg/dL
same,TP,"[…], time 7 day",5.5 g/dL
same,gamma-GTP,"[…], time 7 day",1.2 IU/L
same,A/G,"[…], time 14 day",1.4
same,ALP,"[…], time 14 day",813 IU/L
same,ALT,"[…], time 14 day",29.8 IU/L
same,AST,"[…], time 14 day",60.2 IU/L
same,BUN,"[…], time 14 day",14 mg/dL
same,CRE,"[…], time 14 day",0.5 mg/dL
same,Ca,"[…], time 14 day",10.4 mg/dL
same,Cl,"[…], time 14 day",103.8 meq/L
same,DBIL,"[…], time 14 day",0.062 mg/dL
same,GLC,"[…], time 14 day",215.8 mg/dL
same,IP,"[…], time 14 day",7.3 mg/dL
same,K,"[…], time 14 day",3.7 meq/L
same,LDH,"[…], time 14 day",209.6 IU/L
same,Na,"[…], time 14 day",142.4 meq/L
same,PL,"[…], time 14 day",135.6 mg/dL
same,RALB,"[…], time 14 day",3.5 g/dL
same,TBIL,"[…], time 14 day",0.1 mg/dL
same,TC,"[…], time 14 day",69 mg/dL
same,TG,"[…], time 14 day",73.4 mg/dL
same,TP,"[…], time 14 day",5.9 g/dL
same,gamma-GTP,"[…], time 14 day",1 IU/L
same,A/G,"[…], time 28 day",1.4
same,ALP,"[…], time 28 day",495 IU/L
same,ALT,"[…], time 28 day",31.2 IU/L
same,AST,"[…], time 28 day",60.4 IU/L
same,BUN,"[…], time 28 day",16.4 mg/dL
same,CRE,"[…], time 28 day",0.5 mg/dL
same,Ca,"[…], time 28 day",10.5 mg/dL
same,Cl,"[…], time 28 day",102.2 meq/L
same,DBIL,"[…], time 28 day",0.07 mg/dL
same,GLC,"[…], time 28 day",238 mg/dL
same,IP,"[…], time 28 day",6.9 mg/dL
same,K,"[…], time 28 day",3.9 meq/L
same,LDH,"[…], time 28 day",211.6 IU/L
same,Na,"[…], time 28 day",140.4 meq/L
same,PL,"[…], time 28 day",143.8 mg/dL
same,RALB,"[…], time 28 day",3.5 g/dL
same,TBIL,"[…], time 28 day",0.1 mg/dL
same,TC,"[…], time 28 day",72.4 mg/dL
same,TG,"[…], time 28 day",83 mg/dL
same,TP,"[…], time 28 day",6 g/dL
same,gamma-GTP,"[…], time 28 day",0.8 IU/L

# — ChEMBL document CHEMBL3885861, “Open TG-GATES”
